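Cells were grown in 96-well plates and exposed to each compound for 48 hours at five concentrations; endpoints were interpolated linearly between bracketing concentrations, or set to the highest concentration if not reached. GI50: concentration for 50% inhibition of growth. Definition used: TGI = concentration required for complete inhibition of growth.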
Key:
Test in all cases: growth of human tumour cells (NCI), 48 h
MDA-MB-468 breast = tested on: MDA-MB-468 breast
HCC-2998 colon = tested on: HCC-2998 colon
SR leukemia = tested on: SR leukemia
OVCAR-8 ovarian = tested on: OVCAR-8 ovarian
T-47D breast = tested on: T-47D breast
HOP-62 NSCLC = tested on: HOP-62 NSCLC
HL-60(TB) leukemia = tested on: HL-60(TB) leukemia
MALME-3M melanoma = tested on: MALME-3M melanoma
SNB-75 CNS = tested on: SNB-75 CNS
HCT-116 colon = tested on: HCT-116 colon
SF-539 CNS = tested on: SF-539 CNS
MDA-MB-435 = tested on: MDA-MB-435
SK-MEL-2 melanoma = tested on: SK-MEL-2 melanoma
IGROV1 ovarian = tested on: IGROV1 ovarian
A498 renal = tested on: A498 renal
HT29 colon = tested on: HT29 colon
OVCAR-4 ovarian = tested on: OVCAR-4 ovarian
SNB-19 CNS = tested on: SNB-19 CNS
OVCAR-3 ovarian = tested on: OVCAR-3 ovarian
UO-31 renal = tested on: UO-31 renal
OVCAR-5 ovarian = tested on: OVCAR-5 ovarian
TK-10 renal = tested on: TK-10 renal
EKVX NSCLC = tested on: EKVX NSCLC
NCI-H522 lung = tested on: NCI-H522 lung
KM12 colon = tested on: KM12 colon
RPMI-8226 leukemia = tested on: RPMI-8226 leukemia
SF-295 CNS = tested on: SF-295 CNS
SK-MEL-5 melanoma = tested on: SK-MEL-5 melanoma
MDA-MB-231 breast = tested on: MDA-MB-231 breast
M14 melanoma = tested on: M14 melanoma
PC-3 prostate = tested on: PC-3 prostate
SN12C renal = tested on: SN12C renal
LOX IMVI melanoma = tested on: LOX IMVI melanoma
DU-145 prostate = tested on: DU-145 prostate
SK-MEL-28 melanoma = tested on: SK-MEL-28 melanoma
NCI-H460 lung = tested on: NCI-H460 lung
UACC-62 melanoma = tested on: UACC-62 melanoma
NCI-H23 lung = tested on: NCI-H23 lung
CCRF-CEM leukemia = tested on: CCRF-CEM leukemia
SF-268 CNS = tested on: SF-268 CNS
MCF7 breast = tested on: MCF7 breast
NCI-H226 lung = tested on: NCI-H226 lung
SW-620 colon = tested on: SW-620 colon
ACHN renal = tested on: ACHN renal
HS 578T breast = tested on: HS 578T breast
HOP-92 NSCLC = tested on: HOP-92 NSCLC
UACC-257 melanoma = tested on: UACC-257 melanoma
CAKI-1 renal = tested on: CAKI-1 renal
SK-OV-3 ovarian = tested on: SK-OV-3 ovarian
A549 NSCLC = tested on: A549 NSCLC
MOLT-4 leukemia = tested on: MOLT-4 leukemia
COLO 205 colon = tested on: COLO 205 colon
BT-549 breast = tested on: BT-549 breast
NCI/ADR-RES ovarian = tested on: NCI/ADR-RES ovarian
786-0 renal = tested on: 786-0 renal
U251 CNS = tested on: U251 CNS
HCT-15 colon = tested on: HCT-15 colon
K-562 leukemia = tested on: K-562 leukemia

CCc1ccccc1-c1nc(CN[C@@H]2C[C@@H]3C[C@H]([C@H]2C)C3(C)C)c(C)o1
GI50 (MDA-MB-468 breast): 1500 nM
TGI (MDA-MB-468 breast): 2870 nM
GI50 (HCC-2998 colon): 1650 nM
TGI (HCC-2998 colon): 3070 nM
GI50 (SR leukemia): 2110 nM
TGI (SR leukemia): 5330 nM
GI50 (OVCAR-8 ovarian): 1700 nM
TGI (OVCAR-8 ovarian): 3240 nM
GI50 (T-47D breast): 1730 nM
TGI (T-47D breast): 3810 nM
GI50 (HOP-62 NSCLC): 1650 nM
TGI (HOP-62 NSCLC): 3280 nM
GI50 (HL-60(TB) leukemia): 2430 nM
TGI (HL-60(TB) leukemia): 6730 nM
GI50 (MALME-3M melanoma): 1490 nM
TGI (MALME-3M melanoma): 2840 nM
GI50 (SNB-75 CNS): 12000 nM
TGI (SNB-75 CNS): 24400 nM
GI50 (HCT-116 colon): 1740 nM
TGI (HCT-116 colon): 3300 nM
GI50 (SF-539 CNS): 1800 nM
TGI (SF-539 CNS): 3180 nM
GI50 (MDA-MB-435): 1670 nM
TGI (MDA-MB-435): 3110 nM
GI50 (SK-MEL-2 melanoma): 2550 nM
TGI (SK-MEL-2 melanoma): 7340 nM
GI50 (IGROV1 ovarian): 1700 nM
TGI (IGROV1 ovarian): 3260 nM
GI50 (A498 renal): 1540 nM
TGI (A498 renal): 2950 nM
GI50 (HT29 colon): 1730 nM
TGI (HT29 colon): 3400 nM
GI50 (OVCAR-4 ovarian): 2530 nM
TGI (OVCAR-4 ovarian): 8360 nM
GI50 (SNB-19 CNS): 1770 nM
TGI (SNB-19 CNS): 3400 nM
GI50 (OVCAR-3 ovarian): 1610 nM
TGI (OVCAR-3 ovarian): 2960 nM
GI50 (UO-31 renal): 2130 nM
TGI (UO-31 renal): 8450 nM
GI50 (OVCAR-5 ovarian): 1590 nM
TGI (OVCAR-5 ovarian): 3040 nM
GI50 (TK-10 renal): 2010 nM
TGI (TK-10 renal): 5080 nM
GI50 (EKVX NSCLC): 2580 nM
TGI (EKVX NSCLC): 7010 nM
GI50 (NCI-H522 lung): 1610 nM
TGI (NCI-H522 lung): 3220 nM
GI50 (KM12 colon): 1850 nM
TGI (KM12 colon): 3570 nM
GI50 (RPMI-8226 leukemia): 2190 nM
TGI (RPMI-8226 leukemia): 5270 nM
GI50 (SF-295 CNS): 1720 nM
TGI (SF-295 CNS): 3170 nM
GI50 (SK-MEL-5 melanoma): 1770 nM
TGI (SK-MEL-5 melanoma): 3150 nM
GI50 (MDA-MB-231 breast): 1700 nM
TGI (MDA-MB-231 breast): 3120 nM
GI50 (M14 melanoma): 1620 nM
TGI (M14 melanoma): 3120 nM
GI50 (PC-3 prostate): 1800 nM
TGI (PC-3 prostate): 4380 nM
GI50 (SN12C renal): 1680 nM
TGI (SN12C renal): 3130 nM
GI50 (LOX IMVI melanoma): 1660 nM
TGI (LOX IMVI melanoma): 3020 nM
GI50 (DU-145 prostate): 2030 nM
TGI (DU-145 prostate): 4260 nM
GI50 (SK-MEL-28 melanoma): 1720 nM
TGI (SK-MEL-28 melanoma): 3110 nM
GI50 (NCI-H460 lung): 1720 nM
TGI (NCI-H460 lung): 3160 nM
GI50 (UACC-62 melanoma): 1690 nM
TGI (UACC-62 melanoma): 3190 nM
GI50 (NCI-H23 lung): 1960 nM
TGI (NCI-H23 lung): 4380 nM
GI50 (CCRF-CEM leukemia): 3250 nM
TGI (CCRF-CEM leukemia): 10600 nM
GI50 (SF-268 CNS): 2580 nM
TGI (SF-268 CNS): 11000 nM
GI50 (MCF7 breast): 1650 nM
TGI (MCF7 breast): 3180 nM
GI50 (NCI-H226 lung): 2110 nM
TGI (NCI-H226 lung): 5000 nM
GI50 (SW-620 colon): 1690 nM
TGI (SW-620 colon): 3200 nM
GI50 (ACHN renal): 1770 nM
TGI (ACHN renal): 3180 nM
GI50 (HS 578T breast): 1830 nM
TGI (HS 578T breast): 4160 nM
GI50 (HOP-92 NSCLC): 1370 nM
TGI (HOP-92 NSCLC): 2850 nM
GI50 (UACC-257 melanoma): 1660 nM
TGI (UACC-257 melanoma): 3230 nM
GI50 (CAKI-1 renal): 1830 nM
TGI (CAKI-1 renal): 3810 nM
GI50 (SK-OV-3 ovarian): 14200 nM
TGI (SK-OV-3 ovarian): 28900 nM
GI50 (A549 NSCLC): 1880 nM
TGI (A549 NSCLC): 4030 nM
GI50 (MOLT-4 leukemia): 2230 nM
TGI (MOLT-4 leukemia): 5720 nM
GI50 (COLO 205 colon): 1850 nM
TGI (COLO 205 colon): 3950 nM
GI50 (BT-549 breast): 1710 nM
TGI (BT-549 breast): 3170 nM
GI50 (NCI/ADR-RES ovarian): 1760 nM
TGI (NCI/ADR-RES ovarian): 3610 nM
GI50 (786-0 renal): 1710 nM
TGI (786-0 renal): 3500 nM
GI50 (U251 CNS): 1600 nM
TGI (U251 CNS): 3060 nM
GI50 (HCT-15 colon): 1720 nM
TGI (HCT-15 colon): 3150 nM
GI50 (K-562 leukemia): 2340 nM
TGI (K-562 leukemia): 6540 nM
